# pIC50: −log10 of the molar value. Counter-ions that a name gives are not always drawn. Like-named read-outs stand apart in the source and are kept apart here.
# Assays:
# neurons = test: RNA-sequencing of drug-treated neurons; format: cell-based, rat
# Nrf2 [1] = test: Nrf2 nuclear translocation by immunofluorescence in neurons; format: cell-based, Wistar rats
# Method: (§1) Primary hippocampal neurons were obtained from Wistar rats on embryonic day 18. Briefly, embryos were removed from the womb under sterile conditions and decapitated to dissect the brains. Hippocampi were isolated at 4 °C in Hank’s balanced salt solution (HBSS) without calcium and magnesium, supplemented with 10 mM HEPES buffered saline and 100 U/mL of penicillin-streptomycin. The hippocampi were mechanically disaggregated using fire-polished pipettes and plated for 2–4 h in neuronal plating medium composed of minimum essential medium (MEM) enriched with 0.6% D-glucose and 10% horse serum. Neuronal plating medium was replaced by neurobasal medium supplemented with 1X B-27 and 2 mM L-glutamine. Neurons were grown for 7 days prior to the experiments. For the microglial cells, we used the BV-2 immortalized murine cell line. Microglial cells were cultured in Dulbecco’s modified Eagle medium (DMEM) with 4.5 g/L D-glucose, 2 mM L-glutamine, 100 U/mL of penicillin-streptomycin, and 10% heat-inactivated fetal bovine serum. Cells were maintained at 37 °C in a humidified incubator with 5% CO2. All culture media were purchased from Thermo Fisher Scientific (Waltham, MA, USA).
# (§2) For the immunofluorescence experiments, neurons and microglia were directly seeded on glass coverslips previously treated with 1 mg/mL of poly-L-lysine. […] After the drug treatments, the cells were fixed on ice with 4% paraformaldehyde for 25 min and then permeabilized and blocked using 0.1% Triton X-100 (10 min) and 5% BSA (30 min), respectively. Cells were then incubated overnight with the primary antibodies and 1% BSA at 4 °C. The primary antibodies anti-Nrf2 (ab1375550) and anti-NF-kB p65 (ab16502) (both from Abcam, Cambridge, United Kingdom) were used at 1:200. After washing with PBS, cells were incubated with the fluorophore-conjugated secondary antibody anti-Rabbit IgG Alexa Fluor 488 (Thermo Fisher Scientific) at 1:500 for 1 h at room temperature. Cells were counterstained with the TO-PRO fluorescent dye (Thermo Fisher Scientific) to visualize the cell nuclei. Images were captured using the confocal microscope Leica TCS SP5 (Leica Microsystems, Wetzlar, Germany). For each experimental condition, five random fields were captured and analyzed using ImageJ software (National Institutes of Health, Maryland, DC, USA). Activation of Nrf2 or NF-kB was defined as nuclear translocation, measured by the increase in the mean fluorescence intensity (MFI) in the nucleus. Each experiment was repeated three times.
# [2] = tested on: BV-2 immortalized murine cell line (microglia); test: Cell viability assay (CellTiter-Glo) in microglia; format: cell-based; conditions: Mus musculus, Microglia
# Method: Cell viability was measured at 24, 48, and 72 h of treatment with different drug concentration ranges. For each cellular type, we determined the half-maximal inhibitory concentration (IC50) of each drug. In neurons, as a non-proliferative primary culture, the IC50 was defined as the drug concentration able to diminish cell viability by 50% with respect to the vehicle-treated control. In microglia, as a proliferative cell line, the IC50 was defined as the drug concentration able of inhibiting by 50% cellular proliferation with respect to the vehicle-treated control.
# as §1
# (§3) Neurons and microglia were both seeded at a density of 10,000 cells/well in 96-well plates previously treated with 0.1 mg/mL of poly-L-lysine (Sigma-Aldrich). […] Cell viability was determined at 24, 48, and 72 h. The percentage of viable cells was quantified using the CellTiter-Glo® Luminescent Cell Viability Assay (Promega Biotech Ibérica, Madrid, Spain) following the instructions by the manufacturer. The […] of the cell culture media alone was subtracted as the background from all readings. Cell viability in the drug-treated cells was normalized to their respective vehicle controls. Experiments were repeated three times, each condition in triplicate.
# (§4) Statistical analysis was performed using Prism 8 software (GraphPad, Boston, MA, USA). For the cell viability assays, a linear regression analysis was made with logarithmic transformation of the drug concentrations in the X-axis. The coefficient of determination (R²) was calculated as a measurement of the adjustment of the data to the regression model. The Mann–Whitney test was used to compare two different conditions. The Kruskal–Wallis test was used to compare the different concentrations of each drug against the vehicle or LPS. Statistical significance was established at p < 0.05.
# [3] = tested on: nitric oxide (NO) production in microglia; test: Nitric oxide production (Griess Reagent System) in LPS-activated microglia; format: cell-based, murine
# Method: DMF and MMF (both from Sigma-Aldrich, Saint Louis, MO, USA) were prepared as stock solutions in dimethyl sulfoxide (DMSO); CBD (Cayman chemical, Ann Arbor, MI, USA) was prepared in ethanol (EtOH). Lipopolysaccharide (LPS) from Escherichia coli 026:B6 in an aqueous solution (Thermo Fisher Scientific) was used as proinflammatory stimuli in microglia at a final concentration of 600 ng/mL. For the LPS experiments, the concentration of fetal bovine serum in the microglia culture medium was reduced to 0.1% immediately before drug treatment. All of the compounds were titrated in their respective vehicle and diluted into the culture media for cell treatments. The final concentration of vehicle (DMSO, EtOH or H2O) was consistent for all treated cells (0.2%).
# The concentration of nitrites was measured as an indirect indicator of nitric oxide (NO) production in microglia by using the colorimetric assay Griess Reagent System (Promega Biotech Ibérica, Madrid, Spain). Microglial cells were seeded in 96-well plates, previously treated with 0.1 mg/mL of poly-L-lysine, at a density of 50,000 cells/well. […] The concentration of NO was quantified at a wavelength of 520 nm in an absorbance reader plate. Experiments were repeated three times, each condition in triplicate.
# [4] = tested on: Primary hippocampal neurons; test: Cell viability assay (CellTiter-Glo) in neurons; format: cell-based, Wistar rats; conditions: for pIC50: concentration diminishing cell viability by 50% vs vehicle
# Method: Cell viability was measured at 24, 48, and 72 h of treatment with different drug concentration ranges. For each cellular type, we determined the half-maximal inhibitory concentration (IC50) of each drug.
# as §1, §3, §4
# Nrf2 [5] = test: Nrf2 nuclear translocation by immunofluorescence in microglia; format: cell-based, murine; conditions: 4 h, any tested concentration
# Method: as §1
# as §2, with “After washing with PBS, cells were incubated with the fluorophore-conjugated secondary antibody anti-Rabbit IgG Alexa Fluor 488 (Thermo Fisher Scientific) at 1:500 for 1 h at room temperature. Cells were counterstained with the TO-PRO fluorescent dye (Thermo Fisher Scientific) to visualize the cell nuclei. Images were captured using the confocal microscope Leica TCS SP5 (Leica Microsystems, Wetzlar, Germany).” left out, “Each experiment was repeated three times.” left out
# [6] = 4 h, 30 µM DMF, 30 µM MMF, 6 µM CBD
# [7] = 24 h, 30 µM DMF, 30 µM MMF, 6 µM CBD
compound,measurement,setting,value
"C=C(C)[C@@H]1CCC(C)=C[C@H]1c1c(O)cc(CCCCC)cc1O [CBD, cannabidiol]",number of differentially expressed genes (DEGs) vs vehicle,neurons; [6],four
same,Hmox1 expression vs vehicle,"neurons; 24 h, 6 µM CBD",4.9 log2FC
same,number of DEGs with strong downregulation (fold change < −1),"neurons; 24 h, 6 µM CBD",eight
same,number of DEGs with strong upregulation (fold change > 1),"neurons; 24 h, 6 µM CBD",nine
same,number of downregulated DEGs vs vehicle,"neurons; 24 h, 30 µM DMF, 6 µM CBD",21
same,number of upregulated DEGs vs vehicle,"neurons; 24 h, 30 µM DMF, 6 µM CBD",12
same,number of differentially expressed genes (DEGs) vs vehicle,neurons; [7],33
same,"Nrf2 nuclear protein levels, fold increase vs vehicle","Nrf2 [1]; 4 h, 5 µM",4 fold
same,"Nrf2 nuclear protein levels, fold increase vs vehicle","Nrf2 [1]; 4 h, 6 µM",10 fold
same,"Nrf2 nuclear protein levels, fold increase vs vehicle","Nrf2 [1]; 4 h, 7 µM",10 fold
same,"Nrf2 nuclear protein levels, fold increase vs vehicle","Nrf2 [1]; 4 h, 8 µM",4 fold
same,"Nrf2 nuclear protein levels, fold increase vs vehicle","Nrf2 [1]; 4 h, 10 µM",4 fold
same,"magnitude (peak) of Nrf2 activation, fold change of mean nuclear fluorescence intensity vs vehicle",Nrf2 [1]; 4 h treatment,10 fold
same,lowest concentration inducing nuclear translocation (activation) of Nrf2,"Nrf2 [1]; 4 h treatment, significant vs vehicle",5 µM
same,pIC50,"[2]; 24 h, read-out: IC50 (cell viability), microglia, 24 h, concentration inhibiting cellular proliferation by 50% vs vehicle",4.92
same,pIC50,"[2]; 48 h, read-out: IC50 (cell viability), microglia, 48 h, concentration inhibiting cellular proliferation by 50% vs vehicle",4.92
same,pIC50,"[2]; 72 h, read-out: IC50 (cell viability), microglia, 72 h, concentration inhibiting cellular proliferation by 50% vs vehicle",4.93
same,pIC50,"[2]; 72 h, read-out: IC50 (cell viability), microglia, all of the studied timepoints (24, 48, 72 h)",~4.92
same,"concentration of NO in the supernatant, in words","[3]; LPS + drug, 10 µM",almost undetectable
same,concentration of NO in the supernatant,"[3]; LPS + drug, starting from 6 µM, all timepoints, LPS alone around 40 µM at 48 and 72 h",below 10 µM
same,lowest concentration inhibiting the production of NO,[3]; LPS-activated microglia,6 µM
same,pIC50,"[4]; Rattus norvegicus, Hippocampal neuron, 24 h, read-out: IC50 (cell viability), neurons, 24 h",4.82
same,pIC50,"[4]; Rattus norvegicus, Hippocampal neuron, 48 h, read-out: IC50 (cell viability), neurons, 48 h",4.87
same,pIC50,"[4]; Rattus norvegicus, Hippocampal neuron, 72 h, read-out: IC50 (cell viability), neurons, 72 h",4.89
same,decrease in cell viability,"[4]; neurons, 10 µM",around 20%
same,pIC50,"[4]; read-out: IC50 (cell viability), neurons, 24 h",4.82
same,pIC50,"[4]; read-out: IC50 (cell viability), neurons, 72 h",4.89
same,"Nrf2 activation (nuclear translocation), result in words",Nrf2 [5],did not produce the activation of Nrf2
"COC(=O)/C=C/C(=O)O [MMF, monomethyl fumarate]",number of differentially expressed genes (DEGs) vs vehicle,neurons; [6],did not produce any significant transcriptomic changes
same,Nqo1 expression vs vehicle,"neurons; 24 h, 30 µM DMF, 30 µM MMF",0.98 log2FC
same,number of differentially expressed genes (DEGs) vs vehicle,neurons; [7],three
same,Gstp1 expression vs vehicle,"neurons; 24 h, 30 µM MMF",0.66 log2FC
same,"Nrf2 activation (nuclear translocation), result in words","Nrf2 [1]; 4 h, same concentrations as DMF (up to 30 µM)",did not observe the nuclear translocation of Nrf2
same,pIC50,"[2]; 24 h, microglia, 24 h, concentration inhibiting cellular proliferation by 50% vs vehicle, read-out: IC50 (cell viability)",4.31
same,pIC50,"[2]; 48 h, microglia, 48 h, concentration inhibiting cellular proliferation by 50% vs vehicle, read-out: IC50 (cell viability)",4.38
same,pIC50,"[2]; 72 h, microglia, 72 h, concentration inhibiting cellular proliferation by 50% vs vehicle, read-out: IC50 (cell viability)",4.25
same,pIC50,"[2]; 72 h, microglia, all of the studied timepoints (24, 48, 72 h), read-out: IC50 (cell viability)",~4.30
same,"inhibition of NO production, in words","[3]; LPS + drug, 24 h",significant NO inhibition
same,"inhibition of NO production vs LPS-treated cells, in words","[3]; LPS + drug, same concentrations as DMF (from 1 µM)",halving the concentrations of NO
same,pIC50,"[4]; Rattus norvegicus, Hippocampal neuron, 24 h, neurons, 24 h, read-out: IC50 (cell viability)",4.17
same,pIC50,"[4]; Rattus norvegicus, Hippocampal neuron, 48 h, neurons, 48 h, read-out: IC50 (cell viability)",4.37
same,pIC50,"[4]; Rattus norvegicus, Hippocampal neuron, 72 h, neurons, 72 h, read-out: IC50 (cell viability)",4.25
same,pIC50,"[4]; neurons, 24 h, read-out: IC50 (cell viability)",~4.19
same,pIC50,"[4]; neurons, 72 h, read-out: IC50 (cell viability)",4.26
same,"Nrf2 activation (nuclear translocation), result in words",Nrf2 [5],did not observe Nrf2 activation

# — publication PMC11642486 (International Journal of Molecular Sciences, 2024)
